Measured values reported in patent publication US20050065064A1, “Identification of allosteric peptide agonists of CXCR4” (priority 2002, published 2005).
Where a SMILES comes first, the peptide text is derived from it.

Assays:
CCRF-CEM cells = assay: Chemotaxis assay (transwell) on CCRF-CEM cells; type: cell-based, human
Protocol: The CCRF-CEM acute lymphoblastic leukemia cell line was previously shown to express CXCR4 and to migrate in response to SDF-1α (31). The procedure involved cells that were ˜70-80% confluent and were centrifuged at 1000 rpm for 5 min and resuspended at a concentration of ˜10^7 cells/ml. The transwell system (Corning-Costar^R) was used for quantifying the chemotactic response. Six hundred μl of solution with different concentrations of a CXCR4 agonist were added to the bottom of the wells of 24-well culture plates. One hundred μl of the cell suspension was aliquoted in the transwell cups and inserted in the wells. The bottom of the cups is layered with a membrane that has a 5 μm pore size and allows cell movement towards the higher concentration of chemoattractant. The cells were incubated for 2h at 37° C., after which the migrated cells were collected and counted with an electronic particle counter (Coulter^R). In cases where the effect of neutralization by CXCR4 monoclonal antibodies or antagonists was examined, the inhibitor was added to the upper compartment along with the cells.

CXCR4 [1] = biological target: T1, CXCR4 (Homo sapiens, UniProt P61073); assay: Flow cytometry of CXCR4 surface levels (12G5 indirect staining); type: cell-based
Protocol: Flow cytometric analysis of cell subpopulations was performed using a FACS Vantage flow cytometer (Becton-Dickinson Immunocytometry Systems, San Jose, Calif.) for detection of CXCR4 surface expression with the 12G5 monoclonal antibody. An indirect staining protocol was used. Briefly, after a 90 min incubation with various agents, the cells were washed and resuspended in PBS. Nonspecific (Fc-mediated) binding was blocked using purified rat IgG. The primary antibody (12G5, a mouse IgG2a antibody) was added at 1 μg/ml for 45 min. After centrifugation the cells were resuspended in PBS and the secondary antibody (FITC-linked rat anti-mouse IgG2a) was added at 10 μg/ml for 45 min. The cells were fixed with 2% formaldehyde (in PBS) and used within 2 days for data acquisition. Mouse IgG2a was used as an isotype control. For the fluorescence measurements the cells were excited at 488 nm. The FITC fluorescence was collected through a 530/30 nm band pass filter. A minimum of 15,000 cells were examined for each sample. Analysis of data was performed using the CellQuest software (Becton-Dickinson).
Target sequence in this assay (P61073 whole entry): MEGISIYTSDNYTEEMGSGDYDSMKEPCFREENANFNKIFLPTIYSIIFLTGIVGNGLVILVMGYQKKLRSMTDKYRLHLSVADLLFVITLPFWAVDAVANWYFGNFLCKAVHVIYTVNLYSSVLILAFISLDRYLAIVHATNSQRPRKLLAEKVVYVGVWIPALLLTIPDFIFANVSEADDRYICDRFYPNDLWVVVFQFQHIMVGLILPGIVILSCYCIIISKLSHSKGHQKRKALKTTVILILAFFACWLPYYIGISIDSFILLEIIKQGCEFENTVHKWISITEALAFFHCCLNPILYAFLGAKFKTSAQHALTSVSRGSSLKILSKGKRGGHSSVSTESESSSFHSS

CXCR4 [2] = biological target: T1, CXCR4; assay: β-galactosidase assay in yeast expressing CXCR4 (FUS1-lacZ reporter); type: cell-based; design: The plasmid Cp4181 contains the CXCR4 gene under the control of the constitutive phosphoglycerate kinase (PGK1) promoter; expressed in transfected cells; host or cells: Saccharomyces cerevisiae CY12946 derivatives YAS2 / YAS3 (plasmid Cp4181)
Source text: The initial S. cerevisiae strain was CY12946 (MATα FUS1p-HIS3 GPA1Gαi2(5) canI farIΔI442 his3 leu2 sst2Δ2 ste14::trp1::LYS2 ste3Δ1156 tbt1-1 trp1 ura3) (23). Except for the specific chimeric Ga subunit expressed, CY12946 is genetically similar to CY1141, reported in Klein et al. (18), with two differences. First, the two strains express different Gα subunits. Specifically, CY12946 expresses a chimeric Gα subunit (GPA1Gαi2(5)) in which the C-terminal 5 amino acids of the yeast Ga subunit, GPA1, are replaced by the C-terminal 5 residues of Gαi2. In contrast, as described by Klein et al. (18), CY1141 expresses a chimeric Ga subunit (GPA1(41)Gαi2) in which the N-terminal 33 residues of Gαi2 are replaced by the 41 N-terminal residues of GPA1. We have used CY12946 in the current report because GPA1Gαi2(5) is more efficient than GPA1(41)Gαi2 in coupling CXCR4 to the pheromone response pathway. The use of GPA1Gαi2(5) necessitated deletion of SST2, which down-regulates the pheromone response pathway by accelerating the GTPase activity of GPA1. Thus, the second difference between CY12946 and CY1141 is the presence of an sst2 deletion allele in CY12946. All plasmids were 2μ-derived and contained a REP3 element for autonomous replication in S. cerevisiae and AmPR for selection in Escherichia coli. The plasmid Cp4181 contains the CXCR4 gene under the control of the constitutive phosphoglycerate kinase (PGK1) promoter and a LEU2 selectable marker. […] It also contains the TRP1 selectable marker. Cp6160 expresses full length wild-type SDF-1α in yeast under the control of the constitutive alcohol dehydrogenase (ADH1) promoter. The α-factor signal sequence is cloned at the 5′-end of the SDF sequence to allow secretion of the mature polypeptide. The vector also has the URA3 selectable marker allowing transformed cells to grow in media deficient in uracil. For expression of the 17-mer peptide library, Cp6293 was used. This URA3+plasmid was derived from Cp6160 and contains a frameshift in the SDF-1α sequence so that no functional protein is expressed unless an insert is appropriately cloned. The cDNA coding for 17-mer peptides was cloned using the restriction sites HindIII and Acc65I, which also results in the secretion of the mature peptide. S. cerevisiae strains YAS1, YAS2, YAS3 were constructed by transforming CY12946 with Cp1584, Cp1584/Cp4181 and Cp1584/Cp4181/Cp6160, respectively.
The liquid beta-galactosidase assays were performed essentially as described in (24) or (27) with the following modification. After growth in the appropriate medium, 5 ml of cells displaying the agonist phenotype were centrifuged (2500 rpm for 5 min) and resuspended in 0.5 ml as described (28).
To identify allosteric peptide agonists or modulators of CXCR4, it was necessary to establish an assay that could isolate molecules with the desired properties from a large peptide library. The screen that was used consisted of two steps. The first step was to isolate peptide sequences from a synthetic cDNA library that would allow cells to grow only after activation of CXCR4. A second step was required that would segregate agonists that bind to the native active site from those that bind to allosteric sites. This step involved an agonist assay in the presence of a receptor antagonist. A number of genetic modifications made to S. cerevisiae allowed it to be used for monitoring the interactions of peptides or proteins with CXCR4 (FIG. 1). […]
Target sequence in this assay (P61073 whole entry): as above

CXCR4 [3] = biological target: T1, CXCR4; settings: reference (31); cited from earlier work
Target sequence in this assay (P61073 whole entry, species assumed): as the sequence (P61073 whole entry) above

CXCR4 [4] = biological target: T1, CXCR4; assay: Yeast growth / colony formation in histidine-deficient medium (FUS1-HIS3); type: cell-based; design: The plasmid Cp4181 contains the CXCR4 gene under the control of the constitutive phosphoglycerate kinase (PGK1) promoter; expressed in transfected cells; host or cells: Saccharomyces cerevisiae CY12946 derivatives YAS2 / YAS3 (plasmid Cp4181)
Protocol: All basic media were prepared essentially as described (24). In cases where plasmid selection was necessary, media that lacked uracil, leucine, or tryptophan or an appropriate combination of these nutrients were employed. Library screening was performed in plates that lacked histidine and contained 3-amino-1,2,4-triazole (Sigma), which suppresses the basal level of histidine biosynthesis due to the activity of the FUS1 promoter.
A number of genes for biosynthetic enzymes have been mutated to allow selection of the corresponding marker on a plasmid transformed into the yeast strain. The genomic HIS3 gene, coding for an enzyme essential for the biosynthesis of histidine, has been disrupted by an insertion. The wild-type HIS3 gene has been placed under the control of the pheromone-responsive FUS1 promoter; as a result activation of CXCR4 enables cells to grow in media lacking histidine. To reduce false positives due to any basal activity of FUS1-HIS3,3-amino-1,2,4-triazole, an inhibitor of the enzyme coded by HIS3, is present at low levels in the media during agonist selection. […] Furthermore, the CXCR4 antagonist AMD3100 (34) inhibited YAS2 colony formation (data not shown) and β-galactosidase activity in response to SDF-1α (FIG. 2C).
Target sequence in this assay (P61073 whole entry): as above

CXCR4 [5] = assay: β-galactosidase assay in yeast expressing CXCR4 (FUS1-lacZ reporter); type: cell-based, human; settings: yeast lacking CXCR4; data not shown
Source text: The initial S. cerevisiae strain was CY12946 (MATα FUS1p-HIS3 GPA1Gαi2(5) canI farIΔI442 his3 leu2 sst2Δ2 ste14::trp1::LYS2 ste3Δ1156 tbt1-1 trp1 ura3) (23). Except for the specific chimeric Ga subunit expressed, CY12946 is genetically similar to CY1141, reported in Klein et al. (18), with two differences. First, the two strains express different Gα subunits. Specifically, CY12946 expresses a chimeric Gα subunit (GPA1Gαi2(5)) in which the C-terminal 5 amino acids of the yeast Ga subunit, GPA1, are replaced by the C-terminal 5 residues of Gαi2. In contrast, as described by Klein et al. (18), CY1141 expresses a chimeric Ga subunit (GPA1(41)Gαi2) in which the N-terminal 33 residues of Gαi2 are replaced by the 41 N-terminal residues of GPA1. We have used CY12946 in the current report because GPA1Gαi2(5) is more efficient than GPA1(41)Gαi2 in coupling CXCR4 to the pheromone response pathway. The use of GPA1Gαi2(5) necessitated deletion of SST2, which down-regulates the pheromone response pathway by accelerating the GTPase activity of GPA1. Thus, the second difference between CY12946 and CY1141 is the presence of an sst2 deletion allele in CY12946. All plasmids were 2μ-derived and contained a REP3 element for autonomous replication in S. cerevisiae and AmPR for selection in Escherichia coli. […]

[6] = references (55), (56); cited from earlier work
HIV-1 = settings: in vitro; reference (58); cited from earlier work

In the case of CC(C)C[C@H](NC(=O)[C@H](CO)NC(=O)[C@H](C)N)C(=O)N[C@@H](Cc1c[nH]c2ccccc12)C(=O)N[C@@H](CC(C)C)C(=O)N[C@@H](CO)C(=O)N[C@@H](Cc1ccc(O)cc1)C(=O)N[C@@H](CCCNC(=N)N)C(=O)N[C@@H](CS)C(=O)N1CCC[C@H]1C(=O)N[C@@H](CS)C(=O)N[C@@H](CCCNC(=N)N)C(=O)N[C@@H](Cc1ccccc1)C(=O)N[C@@H](Cc1ccccc1)C(=O)N[C@@H](CCC(=O)O)C(=O)N[C@@H](CO)C(=O)N[C@@H](Cc1c[nH]cn1)C(=O)O [ASLW] (H-ASLWLSYRCPCRFFESH-OH; N-terminus and C-terminus assumed), the “agonist character in chemotaxis (chemotactic index relative to SDF-Fc)” value (CCRF-CEM cells; CCRF-CEM cells) is reported as “superagonist activity”, the EC50 (CCRF-CEM cells; CCRF-CEM cells (FIG. 4A, 4B), read-out: apparent EC50, chemotaxis) is reported as over 60000 nM and the “chemotactic activity combined with SDF-Fc” value (CCRF-CEM cells; CCRF-CEM cells (FIG. 4D)) is reported as “approximately additive”. The “chemotaxis in the presence of the two peptide agonists ASLW and RSVM” value (CCRF-CEM cells; CCRF-CEM cells (FIG. 4E)) was “additive”, the “effect of AMD3100 on chemotactic activity of the agonist” value (CCRF-CEM cells; CCRF-CEM cells, AMD3100 up to 100 μg/ml (~115 μM)) was “Strong resistance to inhibition” and the “effect of T140 on chemotactic activity of the agonist” value (CCRF-CEM cells; CCRF-CEM cells, T140 up to concentrations comparable to the agonists) was “does not inhibit”. The “effect of antibody 44717.111 on chemotactic activity of the agonist” value (CCRF-CEM cells; CCRF-CEM cells, up to 50 μg/ml for the peptides, ten-fold lower for SDF-Fc) was “neither RSVM- nor ASLW-mediated chemotactic activity is significantly affected”, the “effect on CXCR4 levels on the cell surface” value (CXCR4 [1]; 90 min incubation, SDF-Fc 1 μM, RSVM 200 μM, ASLW 100 μM (FIG. 8A-C)) was “only aminor decrease” and the “concentration dependence of the effect on CXCR4 surface levels” value (CXCR4 [1]; FIG. 8D, 8E) was “No significant concentration-dependent response”. The “resistance of β-galactosidase activity to AMD3100” value (CXCR4 [2]; peptide-expressing yeast clones) was “resistance to AMD3100” and the “β-galactosidase activity on endogenous expression of the peptide” value (CXCR4 [2]; yeast strains with or without CXCR4 (FIG. 3)) was “significant increase of β-galactosidase activity only in the strain that co-expresses CXCR4”.
For SDF-1α, the EC50 (CXCR4 [3]) is given as 1 to 10 nM, the “induction of β-galactosidase activity” value (CXCR4 [2]; HIS3-/CXCR4+ yeast with FUS1-lacZ, SDF-1α 100 nM, D-SDF-1α 100 nM, 14-mer 1 μM (FIG. 2B)) is given as “induces an increase of β-galactosidase activity” and the “growth in the absence of histidine” value (CXCR4 [4]; endogenously expressed SDF-1α, strain expressing CXCR4 (FIG. 2A)) is given as “allows the strain expressing CXCR4 to grow in the absence of this amino acid”. For the same molecule, the “response of strain without the receptor (YAS 1)” value (CXCR4 [5]) was “does not respond”.
For c1cc(CN2CCCNCCNCCCNCC2)ccc1CN1CCCNCCNCCCNCC1 [AMD3100, reference compound], the “toxicity / adverse effects in clinical trials” value [6] is given as “cardiac toxicity”, the “interaction between T-20 and AMD3100” value (HIV-1) is given as “strong in vitro synergy” and the “effect on basal level of the pheromone-responsive Fus1 promoter” value (CXCR4 [2]; AMD3100 1 μM (FIG. 2C)) is given as “does not effect the basal level”. For the same molecule, the “inhibition of β-galactosidase activity in response to SDF-1α” value (CXCR4 [2]; AMD3100 1 μM, SDF-1α 100 nM (FIG. 2C)) was “inhibited” and the YAS2 colony formation (CXCR4 [4]; in response to SDF-1α, data not shown) was “inhibited”.
